Molecules are shown by their SMILES.

This assay deals with PD-1/PD-L1 (Homo sapiens (Human), UniProt Q9NZQ7). Kind of assay: PD-1/PD-L1 Homogeneous Time-Resolved Fluorescence (HTRF) Binding Assay. The following applies: recombinant human PD-1 (3 nM) and PD-L1 (10 nM), 25° C., PBS pH 7.4. The method in brief: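 Fc-tagged human PD-1 (25-167, 3 nM) and His-tagged PD-L1 (19-238, 10 nM) preincubated with inhibitor 40 min in PBS pH 7.4, 0.05% Tween-20, 0.1% BSA, 1% DMSO, 25 °C. Binding detected by HTRF (Eu anti-IgG/APC anti-His, 665/620 nm) after 60 min; IC50 from percent control activity.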
PD-1/PD-L1, sequence (Q9NZQ7 19-238): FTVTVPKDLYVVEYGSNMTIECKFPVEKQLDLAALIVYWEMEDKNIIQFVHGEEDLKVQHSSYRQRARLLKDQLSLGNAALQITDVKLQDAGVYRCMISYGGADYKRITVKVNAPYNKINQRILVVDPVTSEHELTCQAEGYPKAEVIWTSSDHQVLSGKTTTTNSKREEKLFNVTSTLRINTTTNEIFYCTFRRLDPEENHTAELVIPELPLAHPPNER
For the compound `Cc1c(-c2nc3cc(CN4CC[C@@H](C(=O)O)C4)cc(C#N)c3o2)cccc1-c1cccc(-c2nc3c(s2)CNCC3)c1C` [Example 72, (R)-1-((7-cyano-2-(2,2′-dimethyl-3′-(4,5,6,7-tetrahydrothiazolo[5,4-c]pyridin-2-yl)biphenyl-3-yl)benzo[d]oxazol-5-yl)methyl)pyrrolidine-3-carboxylic acid], the IC50 is not above 10 nM. The result for `Cc1c(Nc2nccc3cc(CN4CC[C@@H](C(=O)O)C4)cnc23)cccc1-c1cccc(-c2nc3cc(CN[C@@H](C)CO)cc(C#N)c3o2)c1C` [Example 211, (R)-1-((8-(3′-(7-cyano-5-(((S)-1-hydroxypropan-2-ylamino)methyl)benzo[d]oxazol-2-yl)-2,2′-dimethylbiphenyl-3-ylamino)-1,7-naphthyridin-3-yl)methyl)pyrrolidine-3-carboxylic acid] reads not above 10 nM. The result for `Cc1c(Nc2nccc3cc(CN4CC[C@H](O)C4)cnc23)cccc1-c1cccc(-c2nc3cc(CN4CCC(C(=O)O)CC4)cc(Cl)c3o2)c1C` [Example 22, (S)-1-((7-chloro-2-(3′-(3-((3-hydroxypyrrolidin-1-yl)methyl)-1,7-naphthyridin-8-ylamino)-2,2′-dimethylbiphenyl-3-yl)benzo[d]oxazol-5-yl)methyl)piperidine-4-carboxylic acid] reads not above 10 nM; that for `Cc1c(Nc2nccc3cc(CN4CC[C@@H](O)C4)cnc23)cccc1-c1cccc(-c2nc3cc(CN4CCC(C(=O)O)CC4)cc(C#N)c3o2)c1C` [Example 186, (R)-1-((7-cyano-2-(3′-(3-((3-hydroxypyrrolidin-1-yl)methyl)-1,7-naphthyridin-8-ylamino)-2.2′-dimethylbiphenyl-3-yl)benzo [d]oxazol-5-yl)methyl)piperidine-4-carboxylic acid], not above 10 nM; that for `Cc1c(COc2cc(OCc3cncc(C#N)c3)c(CNCCO)cc2Cl)cccc1-c1cccc(-c2nc3cc(CN4CC[C@@H](C(=O)O)C4)cc(Cl)c3o2)c1C` [Example 150, (R)-1-((7-chloro-2-(3′-((2-chloro-5-((5-cyanopyridin-3-yl)methoxy)-4-(((2-hydroxyethyl)amino)methyl)phenoxy)methyl)-2,2′-dimethyl-[1,1′-biphenyl]-3-yl)benzo[d]oxazol-5-yl)methyl)pyrrolidine-3-carboxylic acid], 10 to 100 nM. The value for `Cc1c(Nc2nccc3cc(CN4CC[C@@H](O)C4)cnc23)cccc1-c1cccc(-c2nc3cc(CN4CC[C@@H](C(=O)O)C4)cc(Cl)c3o2)c1C` [Example 18, (R)-1-((7-chloro-2-(3′-(3-(((R)-3-hydroxypyrrolidin-1-yl)methyl)-1,7-naphthyridin-8-ylamino)-2,2′-dimethylbiphenyl-3-yl)benzo[d]oxazol-5-yl)methyl)pyrrolidine-3-carboxylic acid] was not above 10 nM. With `Cc1c(Nc2nccc3cc(CN4CC[C@@H](C(=O)O)C4)cnc23)cccc1-c1cccc(-c2nc3cc(CN4CC[C@@H](O)C4)cc(C#N)c3o2)c1C` [Example 141, (R)-1-((8-(3′-(7-cyano-5-(((R)-3-hydroxypyrrolidin-1-yl)methyl)benzo[d]oxazol-2-yl)-2,2′-dimethylbiphenyl-3-ylamino)-1,7-naphthyridin-3-yl)methyl)pyrrolidine-3-carboxylic acid], the IC50 is not above 10 nM.

For the compound `Cc1c(-c2nc3c(o2)CN(C(=O)CN2CCN(C)CC2)C3)cccc1-c1cccc(-c2nc3cc(CN4CC[C@@](C)(C(=O)O)C4)cc(C#N)c3o2)c1C` [Example 254, (R)-1-((7-cyano-2-(2,2′-dimethyl-3′-(5-(2-(4-methylpiperazin-1-yl)acetyl)-5,6-dihydro-4H-pyrrolo[3,4-d]oxazol-2-yl)-[1,1′-biphenyl]-3-yl)benzo[d]oxazol-5-yl)methyl)-3-methylpyrrolidine-3-carboxylic acid], the IC50 is not above 10 nM. The value for `Cc1c(Nc2nccc3cc(CN[C@@H](C)CO)cnc23)cccc1-c1cccc(-c2nc3cc(CN4CCC(C(=O)O)CC4)cc(C#N)c3o2)c1C` [Example 201, (S)-1-((7-cyano-2-(3′-(3-((1-hydroxypropan-2-ylamino)methyl)-1,7-naphthyridin-8-ylamino)-2,2′-dimethylbiphenyl-3-yl)benzo[d]oxazol-5-yl)methyl)piperidine-4-carboxylic acid] was not above 10 nM.

Regarding `Cc1c(Nc2nccc3cc(C4=NCCN4)cnc23)cccc1-c1cccc(-c2nc3cc(CN4CC[C@@H](C(=O)O)C4)cc(C#N)c3o2)c1C` [Example 166, (R)-1-((7-cyano-2-(3′-(3-(4,5-dihydro-1H-imidazol-2-yl)-1,7-naphthyridin-8-ylamino)-2,2′-dimethylbiphenyl-3-yl)benzo[d]oxazol-5-yl)methyl)pyrrolidine-3-carboxylic acid], the 50% inhibitory concentration (IC50) was not above 10 nM. The value for `Cc1c(-c2nc3cc(CN4CC[C@@H](O)C4)cc(C#N)c3o2)cccc1-c1cccc(NC(=O)c2nc3c(n2C)CCN(CC2CCC(C)(C(=O)O)CC2)C3)c1Cl` (single isomer, unassigned; peak 2) [Example 269] was not above 10 nM.

In the case of `Cc1c(Nc2nccc3cc(CN4CC[C@](C)(O)C4)cnc23)cccc1-c1cccc(-c2nc3cc(CN4CC[C@@H](C(=O)O)C4)cc(C#N)c3o2)c1C` [Example 138, (R)-1-((7-cyano-2-(3′-(3-(((S)-3-hydroxy-3-methylpyrrolidin-1-yl)methyl)-1,7-naphthyridin-8-ylamino)-2,2′-dimethylbiphenyl-3-yl)benzo[d]oxazol-5-yl)methyl)pyrrolidine-3-carboxylic acid], the 50% inhibitory concentration (IC50) is not above 10 nM. The value for `Cc1c(Nc2nccc3cc(CN4CC[C@H](O)C4)cnc23)cccc1-c1cccc(-c2nc3cc(CN4CC[C@@H](C(=O)O)C4)cc(Cl)c3o2)c1C` [Example 16, (R)-1-((7-chloro-2-(3′-(3-(((S)-3-hydroxypyrrolidin-1-yl)methyl)-1,7-naphthyridin-8-ylamino)-2,2′-dimethylbiphenyl-3-yl)benzo[d]oxazol-5-yl)methyl)pyrrolidine-3-carboxylic acid] was not above 10 nM; that for `Cc1c(-c2nc3cc(CN4CC[C@@](C)(C(=O)O)C4)cc(C#N)c3o2)cccc1-c1cccc(NC(=O)c2nc3c(n2C)CCN(C)C3)c1Cl` [Example 88, (R)-1-((2-(2′-chloro-3′-(1,5-dimethyl-4,5,6,7-tetrahydro-1H-imidazo[4,5-c]pyridine-2-carboxamido)-2-methylbiphenyl-3-yl)-7-cyanobenzo[d]oxazol-5-yl)methyl)-3-methylpyrrolidine-3-carboxylic acid] was not above 10 nM; that for `Cc1c(-c2nc3c(o2)CN(C(=O)CN2CC[C@H](O)C2)C3)cccc1-c1cccc(-c2nc3cc(CN4CC[C@@H](C(=O)O)C4)cc(C#N)c3o2)c1C` [Example 128, (R)-1-((7-cyano-2-(3′-(5-(2-((S)-3-hydroxypyrrolidin-1-yl)acetyl)-5,6-dihydro-4H-pyrrolo[3,4-d]oxazol-2-yl)-2,2′-dimethyl-[1,1′-biphenyl]-3-yl)benzo[d]oxazol-5-yl)methyl)pyrrolidine-3-carboxylic acid] was not above 10 nM. The value for `Cc1c(-c2nc3cc(CN4CCC(C(=O)O)CC4)cc(C#N)c3o2)cccc1-c1cccc(NC(=O)c2nc3c(n2C)CCN(C)C3)c1Cl` [Example 89, 1-((2-(2′-chloro-3′-(1,5-dimethyl-4,5,6,7-tetrahydro-1H-imidazo[4,5-c]pyridine-2-carboxamido)-2-methylbiphenyl-3-yl)-7-cyanobenzo[d]oxazol-5-yl)methyl)piperidine-4-carboxylic acid] was not above 10 nM; that for `Cc1c(Nc2ncnc3cccnc23)cccc1-c1cccc(-c2nc3cc(CN4CC[C@@H](C(=O)O)C4)cc(C#N)c3o2)c1C` [Example 13, (R)-1-((7-cyano-2-(2,2′-dimethyl-3′-(pyrido[3,2-d]pyrimidin-4-ylamino)biphenyl-3-yl)benzo[d]oxazol-5-yl)methyl)pyrrolidine-3-carboxylic acid] was not above 10 nM. The value for `CCN(C)CC(=O)N1Cc2nc(-c3cccc(-c4cccc(-c5nc6cc(CN7CC[C@@](C)(C(=O)O)C7)cc(C#N)c6o5)c4C)c3C)oc2C1` [Example 243, (R)-1-((7-cyano-2-(3′-(5-(N-ethyl-N-methylglycyl)-5,6-dihydro-4H-pyrrolo[3,4-d]oxazol-2-yl)-2,2′-dimethyl-[1,1′-biphenyl]-3-yl)benzo[d]oxazol-5-yl)methyl)-3-methylpyrrolidine-3-carboxylic acid] was not above 10 nM; that for `Cc1c(Nc2nccc3cc(CNCC(C)(C)O)cnc23)cccc1-c1cccc(-c2nc3cc(CN4CCCC[C@H]4C(=O)O)cc(Cl)c3o2)c1C` [Example 4, (S)-1-((7-chloro-2-(3′-((3-(((2-hydroxy-2-methylpropyl)amino)methyl)-1,7-naphthyridin-8-yl)amino)-2,2′-dimethyl-[1,1′-biphenyl]-3-yl)benzo[d]oxazol-5-yl)methyl)piperidine-2-carboxylic acid] was not above 10 nM.

Consider `Cc1c(-c2nc3cc(CN4CC[C@@](C)(C(=O)O)C4)cc(C#N)c3o2)cccc1-c1cccc(-c2nc3c(s2)CN(C(=O)CN(C)CCO)C3)c1C` [Example 224, (R)-1-((7-cyano-2-(3′-(5-(2-((2-hydroxyethyl) (methyl)amino)acetyl)-5,6-dihydro-4H-pyrrolo[3,4-d]thiazol-2-yl)-2,2′-dimethylbiphenyl-3-yl)benzo[d]oxazol-5-yl)methyl)-3-methylpyrrolidine-3-carboxylic acid], for which the IC50 is not above 10 nM.

`Cc1c(-c2nc3cc(CN4CC[C@@H](C(=O)O)C4)cc(C#N)c3o2)cccc1-c1cccc(-c2nc3c(s2)CN(C(=O)CN2CC[C@@](C)(O)C2)C3)c1C` [Example 116, (R)-1-((7-cyano-2-(3′-(5-(2-((R)-3-hydroxy-3-methylpyrrolidin-1-yl)acetyl)-5,6-dihydro-4H-pyrrolo[3,4-d]thiazol-2-yl)-2,2′-dimethylbiphenyl-3-yl)benzo[d]oxazol-5-yl)methyl)pyrrolidine-3-carboxylic acid]: the half-maximal inhibitory concentration (IC50) was not above 10 nM.

The record behind these values is patent publication US10308644B2, “Heterocyclic compounds as immunomodulators” (Incyte Corporation, priority 2016, dated 2019).
